# From the METLIN SMRT retention time set (Domingo-Almenara et al. 2019)
# Test: gradient 5% acetonitrile 3 min, to 50% in 2 min, to 85% in 15 min, held 3 min, 100 µL/min
# Conditions: column: Zorbax Extend-C18 2.1 x 50 mm; eluents: water / acetonitrile, 0.1% formic acid
# Method in brief: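 Standards, all pure, were combined into mixtures of ~100 molecules and run at 100 μL/min on a Zorbax Extend-C18 column (2.1 × 50 mm, 1.8 μm) with water and acetonitrile, each containing 0.1% formic acid. A coupled quadrupole time-of-flight mass spectrometer operated in positive and negative ionization mode. Retention time values come from computationally picked adduct peaks, each inspected manually.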
row,SMILES,RP-LC retention time
1,CCOc1ccc(S(=O)(=O)N2CCC(C(=O)NCCO)CC2)cc1,665 s
2,Cc1nnsc1C(=O)Nc1nnc(-c2ccnn2C)o1,665 s
3,Cc1nnc2sc(-c3cccs3)nn2c1=O,664 s
4,COc1cc(NC(=O)NCc2cccs2)ccc1N1CCCCC1=O,645 s
5,COc1ccc(NC(=O)c2c(O)c3cccnc3n(-c3ccc(F)cc3)c2=O)cc1F,1210 s
6,CCn1cnc(S(=O)(=O)N2CCCC(C(=O)NC3CCCCCCC3)C2)c1 (centres undefined),788 s
7,Cc1oc(-c2[nH]ncc2C(=O)N(C)C)cc1S(=O)(=O)NCc1ccco1,622 s
8,O=C(c1nc(-c2ccnc(N3CCCCC3)c2)no1)N1CCCCC1,764 s
9,O=C(CSc1nccc(N2CCC(Cc3ccccc3)CC2)n1)NCCCc1ccccc1,906 s
10,c1ccc2c(c1)[nH]c1c3ccccc3sc21,1160 s
11,c1ccc(-c2noc(N3CCCCC3)n2)cc1,1070 s
12,O=C(O)CCC1CCN(S(=O)(=O)c2cccc(F)c2)CC1,765 s
13,CCOc1nc2ccccc2nc1N1CCCC(C(=O)Nc2ccccc2)C1 (centres undefined),1180 s
14,CCCNC(=O)C1CCN(c2ccc(SCC(=O)Nc3ccc(C(=O)OCC)cc3)nn2)CC1,677 s
15,C=C[C@H]1CN2CCC1C[C@@H]2C(O)c1ccnc2ccccc12 (some centres undefined),576 s
16,CCOc1cccc(-c2noc(-c3nnn(Cc4nc(-c5cccc(C)c5)oc4C)c3C)n2)c1,1410 s
17,O=c1ccc(-c2ccc3c(c2)OCO3)nn1Cc1nc(-c2ccccc2)no1,939 s
18,Cc1sc2ccn(CC(C)C)c(=O)c2c1C(=O)N1CCCCC1,837 s
19,CCc1nc2cc(-c3noc(-c4ccc(CS(=O)(=O)c5ccccc5)cc4)n3)ccc2o1,1140 s

row,SMILES,RP-LC retention time
1,O=C(c1sc2ncccc2c1-n1cccc1)N1CCSCC1,842 s
2,O=C(NCc1ccccc1Cl)C(=O)c1c[nH]c2ccccc12,936 s
3,COc1ccc(N2CC(c3nc(-c4cccs4)no3)CC2=O)cc1Cl (centres undefined),930 s
4,Cn1nc(-c2nc(C3CC3)no2)c2c1CCN(S(=O)(=O)c1cccc(Cl)c1)C2,1000 s
5,Cc1nnc(N2CCCC(C(=O)NCCc3ccccc3)C2)c2nn(-c3ccc(Cl)cc3)c(C)c12 (centres undefined),789 s
6,Cc1cccc(-c2nnc(Cc3nc(-c4ccc5c(c4)OCO5)no3)o2)c1,1010 s
7,CN(CC(=O)NC1CCCC1)S(=O)(=O)c1c[nH]c(C(=O)N2CCCC2)c1,686 s
8,CC(C)n1ccc(-c2nnc(NC(=O)C3CCCN(S(C)(=O)=O)C3)o2)n1 (centres undefined),609 s
9,CCc1ccc(NC(=O)c2cc3c(=O)n(CC)ccc3n2C)cc1,753 s
10,COc1ccc(S(=O)(=O)N2CCc3nn(CC(C)C)c(=O)n3CC2)cc1OC,745 s
11,CCN1CCCn2cc(S(=O)(=O)Nc3cccc(C)c3)cc2C1=O,724 s
12,COc1ccc(NC(=O)C2c3cc(OC)c(OC)cc3C(=O)N(C)C2c2cccs2)c(OC)c1 (centres undefined),846 s
13,CCC(=O)NCCc1csc(C2CCCN(C(=O)C3CCC3)C2)n1 (centres undefined),676 s
14,COc1ccc(-c2cc(C(=O)NCC(c3ccco3)N(C)C)no2)cc1 (centres undefined),661 s
15,Cc1ccc(-c2nnc(CC(=O)NCCc3cccs3)o2)cc1,771 s
16,CC(C)N1C(=O)c2cccnc2Sc2cc(NC(=O)CCc3ccccc3)ccc21,922 s
17,O=[N+]([O-])c1ccc(CSc2ncnc3c2ncn3[C@@H]2O[C@H](CO)[C@H](O)C2O)cc1 (some centres undefined),759 s
18,CCCCN1CCN(C(=O)c2cnc(-c3ccccc3)nc2-c2ccncc2)CC1,638 s
19,Cc1ccccc1NC(=O)CC1COc2ccccc2NC1=O (centres undefined),700 s

row,SMILES,RP-LC retention time
1,CC(=O)Nc1cc(C(=O)NCc2ccccc2C)c2ccc(C)nc2c1,610 s
2,Cc1ccc(NS(=O)(=O)c2c(C)nc3sc4cc(C)ccc4n3c2=O)cc1,1160 s
3,Cc1ccc(Nc2c(-c3cccc(Cl)c3)nc3cc(C)ccn23)cc1,890 s
4,CC(=O)O[C@H]1Cc2ccccc2N(C(N)=O)c2ccccc21,782 s
5,COc1ccc2[nH]cc(CCNC(=O)CCCn3c4ccccc4c4cnn(C)c(=O)c43)c2c1,795 s
6,Cc1noc(-c2nc(-c3cccc(C(F)(F)F)c3)no2)n1,1080 s
7,CCOc1ccc(N2CC(CNS(=O)(=O)c3ccccc3C(F)(F)F)CC2=O)cc1 (centres undefined),824 s
8,CN1CC[C@@H](c2ccc(F)cc2)[C@H](COc2ccc3c(c2)OCO3)C1,766 s
9,Cc1ccc2[nH]cc(CCNC(=O)CN3C(=O)CSc4cccn4-c4ccccc43)c2c1,954 s
10,CCN(CC)CCCNC(=O)c1cc(C)nc2ccc(Br)cc12,585 s
11,CC(C)(C)c1ccc(OCC(=O)Nc2ccnn2Cc2ccco2)cc1,1010 s
12,CC(C)CN1Cc2ccccc2-n2ccnc2C12CCN(C(=O)C1CC1)CC2,648 s
13,CCC(=O)N1CCCC1c1nc(CCOCC2CCCC2)no1 (centres undefined),837 s
14,Cc1ccccc1-c1cn2ccn(-c3ccc(Cl)cc3)c(=O)c2n1,883 s
15,COC(=O)C1=CN(C2CC2)c2cc(N3CCCC(C)C3)c(F)cc2S1(=O)=O (centres undefined),1010 s
16,COc1cccc(-c2noc(COC(=O)C3=CN(Cc4ccccc4)S(=O)(=O)N=C3C)n2)c1,1110 s
17,CC(C)C(=O)N1CC(c2noc(C3CCCN3CC3CC3)n2)C1 (centres undefined),579 s
18,COC(=O)c1cccc(Nc2c(-c3ccc(N(C)C)cc3)nc3cnccn23)c1,776 s

# More lines, now with the values ahead:
row,RP-LC retention time,SMILES
1,668 s,CCOCC(=O)N1CCc2c(c(C(=O)N3CCCC(C(=O)Nc4ccccc4)C3)nn2C)C1 (centres undefined)
2,931 s,Cc1cc(Cl)ccc1S(=O)(=O)N1CC(c2nc(-c3ccncc3)no2)C1
3,837 s,CC1=C(c2ccc(F)cc2)S(=O)(=O)N=C1N1CCCN(C(=O)NCCC(C)C)CC1
4,735 s,COc1ccccc1NC(=O)N1CCC(CNS(=O)(=O)c2cc(C)ccc2C)CC1
5,868 s,O=C(Cn1c(C(=O)NCc2ccc(F)cc2F)cccc1=O)NC1CCCC1
6,567 s,Cc1oc2c(c1C(=O)NCC1CCN(Cc3ccc(Cl)cc3)CC1)C1=NCCN1C=N2
7,885 s,Cc1ccc(-c2nc3sc(N4CCCCC4)nn3c2NC(=O)C2CC2)cc1
8,753 s,COc1ccc(N2CCN(C(=O)Cn3nc(C(=O)N4CCCC4)c4ccccc43)CC2)cc1
9,613 s,COc1ccc(Cl)cc1NC(=O)COc1cc(C)nc(N2CCCC2)n1
10,801 s,CC(=O)c1cccc(NC(=O)N2CCc3c(c(COc4ccc(F)cc4)nn3C)C2)c1
11,889 s,O=C(Cc1ccc(F)cc1)N1CCC2(CC1)N=C(c1ccc(Cl)cc1)NO2
12,879 s,CC(C)CNC(=O)CCn1c(=O)c2ccccc2n2c(=O)n(Cc3ccccc3F)nc12
13,600 s,CC1CCCCN1CCCNC(=O)Cn1c2ccccc2c2cnn(C)c(=O)c21 (centres undefined)
14,877 s,Cc1cccc(OCC(=O)c2ccc3c(c2)N(C(C)C(=O)N2CCOCC2)C(=O)CO3)c1C (centres undefined)
15,816 s,Cc1cc2nn(CC(=O)N3CCC(C)CC3)c(=O)n2c(-c2ccc(F)cc2)n1
16,593 s,Cc1ccc(-n2c(=O)n(CC(=O)NCCCN(C)C)c3cccnc32)cc1
17,634 s,CCN1CCC2(CC1)N=C(c1ccc3c(c1)OCO3)CC(c1cc(Br)ccc1O)N2 (centres undefined)

row,RP-LC retention time,SMILES
1,848 s,O=C(c1n[nH]c(=O)c2ccccc12)N1CCCC1c1nc(CCOCC2CCCC2)no1 (centres undefined)
2,617 s,CCOc1ccccc1NC(=O)N1CCN(CCn2c(C(C)C)nc3cccnc32)CC1
3,822 s,CCOC(=O)c1oc2ccc(S(=O)(=O)N3CCCC(c4nn[nH]n4)C3)cc2c1C (centres undefined)
4,896 s,COc1ccc(OC)c(NC(=O)N2CCC3(CC2)N=C(c2ccc(C)c(C)c2)C(=O)N3)c1
5,832 s,COc1ccc(NC(=O)Cn2nc3c(Oc4ccc(Cl)cc4)nccn3c2=O)cc1
6,988 s,Cc1cc(NC(C)C)n2nc(-c3ccc(C(C)(C)C)cc3)nc2n1
7,629 s,COc1ccc(Nc2c(C(=O)N3CCC(C)CC3)cnc3nc(C)ccc23)cc1OC
8,885 s,O=C(Nc1ccc2nnc(-c3ccc(C(=O)N4CCSCC4)cc3)n2c1)C1CCC1
9,719 s,CSc1nnc(-c2nn(C)c3c2CN(C(=O)CCc2ccccc2)CC3)n1C
10,549 s,Cc1n[nH]c(C)c1CNC(=O)C1Cn2cccc2C(=O)N1C (centres undefined)
11,1030 s,CC1CCCN(c2nn(CC(=O)Nc3ccc4c(c3)OCCO4)c(=O)c3ccccc23)C1 (centres undefined)
12,600 s,CCC1CCCCN1CCCNC(=O)CCc1cc2cc(C)ccc2[nH]c1=O (centres undefined)
13,998 s,Cn1c(=O)c(N2CCCC(C(=O)NCc3cccc(Br)c3)C2)nc2ccccc21 (centres undefined)
14,724 s,CN1c2cc(F)ccc2C(=O)NC12CCN(C(=O)c1ccc3c(c1)OCO3)CC2
15,671 s,CC(=O)c1ccc(NC(=O)Cn2cnc3nc4c(cc3c2=O)CCCC4)cc1
16,759 s,Cc1ccc(CN2CCN(CC(=O)Nc3ccc(Cl)cn3)C(=O)C2=O)cc1
